The text below walks through data of patent US10080742B2, “Isoxazole derivatives as FXR agonists and methods of use thereof” (Enanta Pharmaceuticals, Inc., priority 2016, dated 2018).

pEC50: −log10 of the molar value.

The assay addresses T1, human FXR (NR1H4) (Homo sapiens, UniProt Q96RI1).
T1 construct: host or cells: CHO (Chinese hamster ovary) reporter cells
T1 sequence (Q96RI1 1-486): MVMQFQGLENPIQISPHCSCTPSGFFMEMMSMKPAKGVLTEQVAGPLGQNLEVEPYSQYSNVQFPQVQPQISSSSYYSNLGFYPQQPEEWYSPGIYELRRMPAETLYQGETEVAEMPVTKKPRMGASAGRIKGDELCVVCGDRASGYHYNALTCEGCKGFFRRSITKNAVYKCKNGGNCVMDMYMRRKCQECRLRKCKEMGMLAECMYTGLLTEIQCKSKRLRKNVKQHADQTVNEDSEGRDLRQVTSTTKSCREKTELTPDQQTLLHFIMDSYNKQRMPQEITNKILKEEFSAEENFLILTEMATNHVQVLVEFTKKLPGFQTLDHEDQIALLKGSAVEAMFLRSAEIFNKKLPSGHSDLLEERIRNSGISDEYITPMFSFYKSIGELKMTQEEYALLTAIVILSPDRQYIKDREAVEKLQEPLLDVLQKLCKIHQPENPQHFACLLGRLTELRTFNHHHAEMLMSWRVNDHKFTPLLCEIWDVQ
The experiment in a line: Human FXR (NR1H4) Assay (Gal4 promoter driven luciferase reporter, CHO cells). As to conditions: for pEC50: FXR reporter assay in CHO cells expressing human NR1H4, 22 hours incubation, potency ranges; for Efficacy (%): normalized to CDCA set as 100%, FXR reporter assay in CHO cells. Format: cell-based. The source says:
Human FXR (NR1H4) Assay Determination of a ligand mediated Gal4 promoter driven transactivation to quantify ligand binding mediated activation of FXR. FXR Reporter Assay kit purchased from Indigo Bioscience (Catalogue number: IB00601) to determine the potency and efficacy of compound developed by Enanta that can induce FXR activation. The principle application of this reporter assay system is to quantify functional activity of human FXR. The assay utilizes non-human mammalian cells, CHO (Chinese hamster ovary) cells engineered to express human NR1H4 protein (referred to as FXR). Reporter cells also incorporate the cDNA encoding beetle luciferase which catalyzes the substrates and yields photon emission. Luminescence intensity of the reaction is quantified using a plate-reading luminometer, Envision. Reporter Cells include the luciferase reporter gene functionally linked to an FXR responsive promoter. Thus, quantifying changes in luciferase expression in the treated reporter cells provides a sensitive surrogate measure of the changes in FXR activity. […] The assay is according to the manufacturer's instructions. In brief, the assay was performed in white, 96 well plates using final volume of 100 ul containing cells with different doses of compounds. Retrieve Reporter Cells from −80° C. storage. Perform a rapid thaw of the frozen cells by transferring a 10 ml volume of 37° C. cell recovery medium into the tube of frozen cells. Recap the tube of Reporter Cells and immediately place it in a 37° C. water bath for 5-10 minutes. Retrieve the tube of Reporter Cell Suspension from the water bath. Sanitize the outside surface of the tube with a 70% alcohol swab, and then transfer it into the cell culture hood. Dispense 90 μl of cell suspension into each well of the 96-well Assay Plate. Transfer the plate into 37° C. incubator, allowing the cells adherent to the bottom of the well. Dilute compounds in Dilution Plate (DP), and administrate to cells at Assay Plate (AP). DMSO content of the samples was kept at 0.2%. Cells were incubated for additional 22 hours before luciferase activities were measured. Thirty minutes before intending to quantify FXR activity, remove Detection Substrate and Detection Buffer from the refrigerator and place them in a low-light area so that they may equilibrate to room temperature. Remove the plate's lid and discard all media contents by ejecting it into an appropriate waste container. Gently tap the inverted plate onto a clean absorbent paper towel to remove residual droplets. Cells will remain tightly adhered to well bottoms. Add 100 μl of luciferase detection reagent to each well of the assay plate. Allow the assay plate to rest at room temperature for at least 5 minutes following the addition of LDR. Set the instrument (Envision) to perform a single 5 second “plate shake” prior to reading the first assay well. Read time may be 0.5 second (500 mSec) per well.

Consider `O=C(O)c1ccc2nc(N3CCC(OCc4c(-c5c(Cl)cccc5Cl)noc4C4CC4)CC3)sc2c1` [Compound (1), reference compound], for which the pEC50 was above 7.00 and the “Efficacy (%)” value is recorded as 304%.

`CN(C)S(=O)(=O)NC(=O)c1ccc2nc(N3CCC(OCc4c(-c5c(Cl)cccc5Cl)noc4C4CC4)CC3)sc2c1` [Example 26]: the pEC50 was above 7.00 and the “Efficacy (%)” value is recorded as 129%.

With `O=C(NS(=O)(=O)C1CC1)c1ccc2nc(N3CCC(OCc4c(-c5c(Cl)cccc5Cl)noc4C4CC4)CC3)sc2c1` [Example 11], the pEC50 was 6.00 to 7.00 and the “Efficacy (%)” value is 122%.

One may read the pEC50 as the negative decadic logarithm of the EC50, by convention in mol/L. High values mean a low EC50, low ones a high EC50.
